Experimental data: ChEMBL document CHEMBL1125844, “Novel non-nucleoside inhibitors of HIV-1 reverse transcriptase. 1. Tricyclic pyridobenzo- and dipyridodiazepinones” (J Med Chem, 1991)

Assays:
[1] = biological target: Human immunodeficiency virus type 1 reverse transcriptase (Human immunodeficiency virus 1, UniProt Q72547); assay: In vitro inhibitory activity against human immunodeficiency virus type 1 (HIV-1) reverse transcriptase (RT)
[2] = biological target: Human immunodeficiency virus type 1 reverse transcriptase (Human immunodeficiency virus 1) (UniProt Q72547); assay: In vitro inhibitory activity against human immunodeficiency virus type 1 (HIV-1) reverse transcriptase (RT) at a concentration of 10 ug/mL.

CCN1c2ccccc2N(CF)C(=O)c2cccnc21
IC50 [1]: > 1 µM | inhibition [2]: 85%

CC(=O)N1c2ccccc2N(C)C(=O)c2cccnc21
IC50 [1]: > 1 µM | inhibition [2]: 72%

CCN1c2ncccc2NC(=O)c2c(C)ccnc21
IC50 [1]: > 1 µM | inhibition [2]: 80%

CN1C(=O)c2cccnc2N(S(C)(=O)=O)c2ncccc21
IC50 [1]: > 1 µM | inhibition [2]: 77%

CCN1c2ccc(CN)cc2N(C)C(=O)c2cccnc21
IC50 [1]: > 1 µM | inhibition [2]: 84%

CN1C(=O)c2cccnc2Nc2ccccc21
IC50 [1]: > 1 µM | inhibition [2]: 43%

CSCN1c2ccccc2N(C)C(=O)c2cccnc21
IC50 [1]: 6.6 µM | inhibition [2]: 84%

CSCN1c2ncccc2C(=O)N(C)c2cccnc21
IC50 [1]: 0.85 µM | inhibition [2]: 99%

CN(C)C(=O)CN1C(=O)c2cccnc2Nc2ccccc21
IC50 [1]: > 1 µM | inhibition [2]: 24%

O=C1Nc2c(CO)ccnc2N(C2CC2)c2ncccc21
IC50 [1]: 3 µM | inhibition [2]: 94%

CCN1c2ncccc2NC(=O)c2cc(C)cnc21
IC50 [1]: > 1 µM | inhibition [2]: 89%

CCN1c2ccc(C(N)=O)cc2N(C)C(=O)c2cccnc21
IC50 [1]: 27 µM | inhibition [2]: 66%

CCN1c2ccc(C)c(C)c2N(C)C(=O)c2cccnc21
IC50 [1]: 0.036 µM | inhibition [2]: 99%

CCN1c2ccccc2N(C)C(=O)c2cc(Cl)cnc21
IC50 [1]: 7.6 µM | inhibition [2]: 91%

CC(=O)N1c2cc(C)c(C)cc2N(C)C(=O)c2cccnc21
IC50 [1]: 0.42 µM | inhibition [2]: 96%

CCOC(=O)N1c2ccccc2N(C)C(=O)c2cccnc21
IC50 [1]: > 1 µM | inhibition [2]: 13%

CN1C(=O)c2ccccc2N(C)c2ncccc21
IC50 [1]: > 1 µM | inhibition [2]: 74%

CCN1C(=O)c2cccnc2N(CC)c2cccc(C)c21
IC50 [1]: 8 µM | inhibition [2]: 90%

O=C1Nc2cccnc2N(c2ccccc2)c2ncccc21
IC50 [1]: > 1 µM | inhibition [2]: 71%

CCN1c2ccc(C)cc2C(=O)N(C)c2cccnc21
IC50 [1]: 0.58 µM | inhibition [2]: 99%

CCN1c2cc(Cl)ccc2N(C)C(=O)c2cccnc21
IC50 [1]: 0.17 µM | inhibition [2]: 100%

Cc1ccc2c(c1)N(C)C(=O)c1c(C)cc(C)nc1N2C
IC50 [1]: > 1 µM | inhibition [2]: 49%

CCN1c2ncccc2C(=O)N(C)c2cc(C)c(C)nc21
IC50 [1]: 0.24 µM | inhibition [2]: 100%

O=C1Nc2cccnc2Nc2ccccc21
IC50 [1]: > 1 µM | inhibition [2]: 23%

CCN1c2cc(C(F)(F)F)cc(Cl)c2N(C)C(=O)c2cccnc21
IC50 [1]: 0.29 µM | inhibition [2]: 96%

CN1c2ccccc2NC(=O)c2cccnc21
IC50 [1]: > 1 µM | inhibition [2]: 75%

CCN1c2ccccc2C(=O)N(C)c2cccnc21
IC50 [1]: 0.5 µM | inhibition [2]: 99%

CC(C)N1c2ccccc2N(C)C(=O)c2cccnc21
IC50 [1]: 0.2 µM | inhibition [2]: 98%

CCN1c2ccc(C(=O)O)cc2N(C)C(=O)c2cccnc21
IC50 [1]: > 1 µM | inhibition [2]: 18%

CCN1c2cc(C)c(C)cc2N(C)C(=O)c2cccnc21
IC50 [1]: 0.04 µM | inhibition [2]: 100%

CN1C(=O)c2ccccc2N(C)c2ccccc21
IC50 [1]: > 1 µM | inhibition [2]: 52%

O=C1c2cccnc2Nc2ccccc2N1CCO
IC50 [1]: > 1 µM | inhibition [2]: 46%

CCN1c2cc(C(F)(F)F)cc(Br)c2N(C)C(=O)c2cccnc21
IC50 [1]: > 1 µM | inhibition [2]: 71%

CC[C@@H](C)N1c2ncccc2NC(=O)c2cccnc21
IC50 [1]: > 1 µM | inhibition [2]: 85%

Cc1ccc2c(n1)Nc1ccccc1C(=O)N2
IC50 [1]: > 1 µM | inhibition [2]: 46%

CCN1c2nc(C)c(C)cc2NC(=O)c2cccnc21
IC50 [1]: 0.41 µM | inhibition [2]: 100%

CCN1c2ncccc2C(=O)N(C)c2cccnc21
IC50 [1]: 0.125 µM | inhibition [2]: 100%

CCN1c2ncccc2NC(=O)c2cccnc21
IC50 [1]: 0.44 µM | inhibition [2]: 99%

CCCN1c2ncccc2C(=O)N(C)c2cccnc21
IC50 [1]: 0.45 µM | inhibition [2]: 100%

CCOC(=O)CN1c2ccccc2N(C)C(=O)c2cccnc21
IC50 [1]: 16 µM | inhibition [2]: 56%

CCN1c2ccc([N+](=O)[O-])cc2N(C)C(=O)c2cccnc21
IC50 [1]: > 1 µM | inhibition [2]: 56%

CCCN1c2ccccc2N(C)C(=O)c2cccnc21
IC50 [1]: 0.23 µM | inhibition [2]: 99%

CCN1c2cccc(C)c2N(Cc2ccccc2)C(=O)c2cccnc21
IC50 [1]: > 1 µM | inhibition [2]: 40%

Cc1cccc2c1NC(=O)c1cccnc1N2
IC50 [1]: > 1 µM | inhibition [2]: 77%

CCN1c2ncccc2C(=O)N(C)c2cc(N)cnc21
IC50 [1]: > 1 µM | inhibition [2]: 92%

CCN1c2cc(C(F)(F)F)ccc2N(C)C(=O)c2cccnc21
IC50 [1]: 0.23 µM | inhibition [2]: 97%

CN1C(=O)c2cccnc2N(C2CCCCC2)c2ncccc21
IC50 [1]: > 1 µM | inhibition [2]: 73%

CCN1c2ccc(CO)cc2N(C)C(=O)c2cccnc21
IC50 [1]: > 1 µM | inhibition [2]: 78%

CCN1C(=O)c2cccnc2Nc2ccccc21
IC50 [1]: > 1 µM | inhibition [2]: 87%

Cc1ccnc2c1N(C)C(=O)c1cccnc1N2C1CC1
IC50 [1]: > 1 µM | inhibition [2]: 96%
